“Also recorded” adds a separate entry of the source.
How the values were obtained:
α-Syn fibrils [1] = target: T1, α-Syn fibrils (Homo sapiens, UniProt P37840); test: Binding affinity to α-Syn fibrils by curcumin analog fluorescence
T1 construct: made in house; host or cells: Escherichia coli BL21
Procedure: To estimate the comparative binding affinity of curcumin analogs to the α-Syn fibrils and oligomers, curcumin fluorescence assay was performed for each analog. For binding study with fibrils, 10 μM of α-Syn fibrils were incubated in presence of varying concentration of curcumin and its analogs (0.25 μM to 30 μM) for 30 min at RT in dark and then fluorescence spectra were recorded. The normalized fluorescence intensity of different concentrations of curcumin/analogs at their corresponding λmax was plotted to obtain their respective saturation plots (Figs 6A and S7). From the saturation plot, dissociation constant (Kd) was calculated (see method section).
The binding of curcumin/analogs to α-Syn fibrils were determined based on change in fluorescence intensity. For this study, 10 μM α-Syn fibrils were incubated in presence and absence of varying concentration of curcumin/analogs (0.25 μM to 30 μM) for 30 min at RT in dark. Immediately after incubation, fluorescence study was performed (for the excitation and emission ranges for each compounds, see Fig. S1). Experiments were performed using FluoroMax-4 spectrofluorometer (HORIBA JobinYvon) with excitation and emission slit widths of 5 nm. The maximum fluorescence intensity for curcumin/analogs was normalized with respect to that of the lowest concentration of each analog. The normalized fluorescence intensity was plotted against increasing concentration of curcumin/analogs and the dissociation constant was determined using the equation
where, “ΔF” is the change in the fluorescence intensity of curcumin/analogs, “ΔFmax” is the change in the fluorescence intensity at saturation point and “L”is the concentration of curcumin/analogs. The data were analyzed in Graphpad Prism software according to established method as used previously. Similarly, the dissociation constant of curcumin and its analogs with preformed α-Syn oligomers and monomers (obtained from SEC) were also determined.

α-Syn fibrils [2] = target: T1, α-Syn fibrils; test: MTT assay of α-Syn fibrils formed in presence of curcumin analogs; assay type: cell-based; details: 10 μM α-Syn fibril, 36 h, SH-SY5Y
Procedure: Next, we measured the effect of α-Syn fibrils formed in presence and absence of curcumin analogs on the viability of SH-SY5Y neuronal cell line by MTT reduction assay. SH-SY5Y cells were incubated with 10 μM α-Syn fibril formed in presence of various curcumin analogs for 36 h. […] However, the extent of decrease in toxicity was different for different analogs. […] The calcein-AM/ethidium homodimer-1 staining also further corroborated the results obtained from MTT and LDH assay (Fig. 8C).

α-Syn oligomers [3] = target: T2, α-Syn oligomers (Homo sapiens, UniProt P37840); test: TEM of α-Syn oligomers with C1/C6; assay type: biochemical
T2 construct: made in house; host or cells: Escherichia coli BL21
From the text: (§1) It has been shown that α-Syn mutants that form oligomers preferentially are more toxic and kill dopaminergic neurons in animal models as compared to fibril forming mutants. Therefore, compounds that effectively reduce the toxicity of oligomers could be beneficial for the treatment of PD. In the present study, we tested the effect of curcumin and its analogs on the toxicity, hydrophobic exposure and morphology of α-Syn oligomers isolated using size exclusion chromatography (SEC). The toxicity of α-Syn oligomers in presence and absence of curcumin/analogs were initially tested using MTT assay. […] To further validate the effectiveness of C6 to reduce the cytotoxicity of α-Syn oligomers, we also performed LDH cytotoxicity assay and Calcein-AM/Ethidium homodimer-1 staining. […] As previously it has been proposed that curcumin reduces the oligomers toxicity by altering their exposed hydrophobic surface, we also measured the hydrophobic surface exposure of preformed α-Syn oligomers incubated with curcumin and its analogs.
5 μl of various species of α-Syn (50 μM) incubated in absence and presence of curcumin and its analogs were spotted on carbon coated formavar grid and air dried for 10 min. The samples were then washed thrice with autoclaved MQ. The samples were then stained with 10 μl of uranyl formate 1% (w/v) and incubated in dark for 10 min. […]

preformed α-Syn fibrils [4] = target: T3, preformed α-Syn fibrils (Homo sapiens, UniProt P37840); test: CD spectroscopy of preformed α-Syn fibrils with analogs; assay type: biochemical; details: 0 h and 48 h of incubation
T3 construct: made in house; host or cells: Escherichia coli BL21
Procedure: Further, the effect of curcumin analogs on the secondary structure of protein in preformed amyloid fibrils was studied by circular dichroism (CD) spectroscopy at 0 h and after 48 h of incubation. […] To further validate this, Fourier transform infrared spectroscopy (FTIR) was also performed with these samples, where spectra were recorded from 1500 to 1800 cm^−1.The region characteristic of protein secondary structures (1600–1700 cm^−1) was deconvoluted and the peaks were assigned according to published reports. FTIR spectra in the 1600–1700 cm^−1 region of preformed α-Syn fibrils in absence and presence of curcumin and its analogs are presented in Figs 4B and S4 and their percentage of secondary structures are shown in Table-S1.
20 μl of protein solution from 80 μM stock was diluted to 200 μl in 20 mM MES buffer, pH 6.0 with 0.01% NaN3 such that final protein concentration becomes 8 μM. The protein solution was then placed into a quartz cell (Hellma, Forest Hills, NY) of 0.1 cm path-length. Spectra were recorded using JASCO-810 instrument at 25 °C. Spectra acquisition was over the wavelength range of 198–260 nm with the scan speed of 100 nm/min, bandwidth 1 nm, data pitch 1 nm and response time of 1 sec. Processing of raw data was done by subtraction of buffer spectra and subsequently smoothing according to the manufacturer’s instructions.

α-Syn fibrils [5] = target: T1, α-Syn fibrils; test: LDH cytotoxicity assay of α-Syn fibrils formed in presence of curcumin analogs; assay type: cell-based; details: SH-SY5Y cells
From the text: (§2) The percent LDH release was plotted as difference in the absorbance value of 490 nm and 690 nm, considering 100% release for the TritonX-100 treated cells.

preformed α-Syn fibrils [6] = target: T3, preformed α-Syn fibrils; test: LDH cytotoxicity assay of preformed α-Syn fibrils incubated with curcumin analogs; assay type: cell-based; details: fibrils incubated with analog 48 h; SH-SY5Y cells
Procedure: The concentration of the fibrils was determined by subtraction of supernatant concentration from the original concentration of α-Syn kept for fibrillation.
as §2

α-Syn oligomers [7] = target: T2, α-Syn oligomers; test: LDH cytotoxicity assay of α-Syn oligomers with C1/C6; assay type: cell-based; details: oligomers incubated 30 minutes with compound; SH-SY5Y cells
From the text: as §1
10 μM of α-Syn oligomers/fibrils incubated with and without 5 μM curcumin/analogs were added to SH-SY5Y cells (10,000 cells/well) in 96 well plate. […] The percent LDH release was plotted as difference in the absorbance value of 490 nm and 690 nm, considering 100% release for the TritonX-100 treated cells.

- Kd (α-Syn fibrils [1]; 10 μM fibrils, 0.25–30 μM analog, 30 min RT, read-out: dissociation constant (Kd) for α-Syn fibrils): 482 ± 70 nM
- binding with preformed α-Syn fibrils (α-Syn fibrils [1]; compound fluorescence): highest binding
- morphology of α-Syn oligomers (TEM) (α-Syn oligomers [3]): significantly altered their morphology
- secondary structure of preformed α-Syn fibrils by CD (preformed α-Syn fibrils [4]): remains unaltered
Structure (SMILES): COc1cc(/C=C/C(=O)CC(=O)/C=C/c2ccc(OCc3ccccc3)c(OC)c2)ccc1OCc1ccccc1 [C6]
- toxicity of α-Syn fibrils formed in presence of analog, MTT (α-Syn fibrils [2]): maximum cell viability; also recorded: less toxicity to cells
- toxicity of α-Syn fibrils formed in presence of analog, LDH (α-Syn fibrils [5]): less toxicity to cells
- effect on cell death by preformed α-Syn fibrils, LDH (preformed α-Syn fibrils [6]): decrease in cell death
- LDH release with α-Syn oligomers (α-Syn oligomers [7]): reduced LDH release

Reference: article PMC4919791, “Effect of curcumin analogs onα-synuclein aggregation and cytotoxicity” (Scientific Reports, 2016)
